{"source": "ChEMBL document CHEMBL1148847", "about": "“Synthesis of 3-(1H-benzimidazol-2-yl)-5-isoquinolin-4-ylpyrazolo[1,2-b]pyridine, a potent cyclin dependent kinase 1 (CDK1) inhibitor” (Bioorg Med Chem Lett, 2007)", "key": {"[1]": {"assay": "Inhibition of CDK1/Cyclin B by Flashplate assay", "parameters": "species or system Homo sapiens"}, "[2]": {"target": "Vascular endothelial growth factor receptor 2 (Homo sapiens, UniProt P35968)", "sequence (P35968 whole entry)": "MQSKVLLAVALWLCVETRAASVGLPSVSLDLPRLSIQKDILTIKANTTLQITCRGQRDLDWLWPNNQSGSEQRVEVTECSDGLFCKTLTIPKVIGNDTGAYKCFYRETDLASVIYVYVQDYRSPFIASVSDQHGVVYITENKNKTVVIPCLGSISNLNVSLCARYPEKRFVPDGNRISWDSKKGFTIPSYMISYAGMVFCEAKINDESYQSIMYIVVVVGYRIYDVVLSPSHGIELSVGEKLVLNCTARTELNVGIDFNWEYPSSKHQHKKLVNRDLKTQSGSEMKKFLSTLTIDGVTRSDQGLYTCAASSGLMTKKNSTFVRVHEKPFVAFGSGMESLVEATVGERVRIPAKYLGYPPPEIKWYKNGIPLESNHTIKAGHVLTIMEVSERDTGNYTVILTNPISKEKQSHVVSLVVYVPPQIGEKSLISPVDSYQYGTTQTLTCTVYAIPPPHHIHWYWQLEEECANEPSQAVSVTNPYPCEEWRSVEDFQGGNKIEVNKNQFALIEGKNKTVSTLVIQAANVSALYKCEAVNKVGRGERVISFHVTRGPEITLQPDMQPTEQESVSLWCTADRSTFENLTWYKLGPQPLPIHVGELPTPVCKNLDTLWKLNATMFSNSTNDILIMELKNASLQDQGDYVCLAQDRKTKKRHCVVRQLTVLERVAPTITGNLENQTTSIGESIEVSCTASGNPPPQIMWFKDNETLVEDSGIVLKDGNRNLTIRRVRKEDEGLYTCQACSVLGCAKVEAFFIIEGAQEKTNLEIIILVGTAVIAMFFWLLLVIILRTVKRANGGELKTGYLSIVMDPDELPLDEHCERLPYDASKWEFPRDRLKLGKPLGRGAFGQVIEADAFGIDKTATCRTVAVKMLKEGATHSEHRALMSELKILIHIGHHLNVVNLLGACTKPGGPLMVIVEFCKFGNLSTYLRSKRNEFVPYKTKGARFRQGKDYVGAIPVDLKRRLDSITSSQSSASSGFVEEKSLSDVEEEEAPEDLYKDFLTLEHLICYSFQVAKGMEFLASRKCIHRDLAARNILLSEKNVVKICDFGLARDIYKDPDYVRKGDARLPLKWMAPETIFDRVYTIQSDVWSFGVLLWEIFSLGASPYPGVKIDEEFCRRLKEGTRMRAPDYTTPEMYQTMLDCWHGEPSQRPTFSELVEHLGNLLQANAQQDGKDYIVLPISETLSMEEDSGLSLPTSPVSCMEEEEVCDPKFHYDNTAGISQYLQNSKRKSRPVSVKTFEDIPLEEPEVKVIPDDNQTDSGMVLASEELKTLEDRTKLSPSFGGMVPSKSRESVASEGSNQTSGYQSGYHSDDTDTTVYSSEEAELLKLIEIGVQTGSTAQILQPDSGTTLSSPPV", "assay": "Inhibition of VEGFR2"}}, "data": [{"compound": "c1ccc2c(-c3cnc4[nH]nc(-c5nc6ccccc6[nH]5)c4c3)cncc2c1", "values": [{"measurement": "IC50", "setting": "[1]", "result": 23, "unit": "nM"}, {"measurement": "IC50", "setting": "[2]", "result": 1460, "unit": "nM"}]}]}
